Assay results reported in PubChem BioAssay AID328 (DTP/NCI, 2004).
Several values for one entry are separate records, joined by “and”; a condition that tells them apart may be missing. Equal values may be shown once. Toxic doses and inconclusive results are not listed.

System: BDF1 mice, P388 leukemia ip, median survival T/C
Assay: NCI In Vivo Anticancer Drug Screen. Data for tumor model P388 Leukemia (intraperitoneal) in B6D2F1 (BDF1) mice
Settings: endpoint: median survival time, higher = longer survival
Method in brief: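 Compound-treated tumour-bearing mice were compared with vehicle-treated controls. Survival was recorded, and the value is the treated-group measurement divided by the control-group measurement (T/C).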

O=C1CN(CCl)C(=O)CN1CCl
T/C (dose: 12.5 mg/kg/injection, schedule: Q04DX003 (ip), vehicle: water): 100 % of control and 107 % of control
T/C (dose: 25.0 mg/kg/injection, schedule: Q01DX009 (ip), vehicle: water): 94 % of control
T/C (dose: 25.0 mg/kg/injection, schedule: Q04DX003 (ip), vehicle: water): 92 % of control and 103 % of control
T/C (dose: 50.0 mg/kg/injection, schedule: Q01DX009 (ip), vehicle: water): 92 % of control
T/C (dose: 50.0 mg/kg/injection, schedule: Q04DX003 (ip), vehicle: water): 95 % of control and 107 % of control
T/C (dose: 100.0 mg/kg/injection, schedule: Q01DX009 (ip), vehicle: water): 100 % of control
T/C (dose: 100.0 mg/kg/injection, schedule: Q04DX003 (ip), vehicle: water): 96 % of control
T/C (dose: 200.0 mg/kg/injection, schedule: Q01DX009 (ip), vehicle: water): 94 % of control

[Cl][Hg][CH]1CCCC2OC(C(Cl)(Cl)Cl)OC21 (centres undefined)
T/C (dose: 0.2 mg/kg/injection, schedule: Q01DX001 (ip), vehicle: saline with Tween-80): 111 % of control
T/C (dose: 0.4 mg/kg/injection, schedule: Q01DX001 (ip), vehicle: saline with Tween-80): 109 % of control
T/C (dose: 0.78 mg/kg/injection, schedule: Q01DX001 (ip), vehicle: saline with Tween-80): 101 % of control
T/C (dose: 0.8 mg/kg/injection, schedule: Q01DX001 (ip), vehicle: saline with Tween-80): 109 % of control
T/C (dose: 1.6 mg/kg/injection, schedule: Q01DX001 (ip), vehicle: saline with Tween-80): 116 % of control

O=CC12Cc3ccccc3C1CCC1(C2)OCCO1 (centres undefined)
T/C (dose: 100.0 mg/kg/injection, schedule: Q04DX003 (ip), vehicle: saline sonified): 90 % of control
T/C (dose: 200.0 mg/kg/injection, schedule: Q04DX003 (ip), vehicle: saline sonified): 110 % of control
T/C (dose: 400.0 mg/kg/injection, schedule: Q04DX003 (ip), vehicle: saline sonified): 110 % of control

Cc1nc2ccccc2nc1CC(O)(c1ccccc1)c1ccccc1
T/C (dose: 50.0 mg/kg/injection, schedule: Q01DX009 (ip), vehicle: saline with Tween-80): 97 % of control
T/C (dose: 100.0 mg/kg/injection, schedule: Q01DX009 (ip), vehicle: saline with Tween-80): 103 % of control
T/C (dose: 200.0 mg/kg/injection, schedule: Q01DX009 (ip), vehicle: saline with Tween-80): 100 % of control

CC(NC=O)C(=O)NC(CC(=O)O)C(=O)O (centres undefined)
T/C (dose: 50.0 mg/kg/injection, schedule: Q01DX005 (ip), vehicle: saline): 95 % of control
T/C (dose: 100.0 mg/kg/injection, schedule: Q01DX005 (ip), vehicle: saline): 93 % of control
T/C (dose: 200.0 mg/kg/injection, schedule: Q01DX005 (ip), vehicle: saline): 89 % of control

CC(=O)NC1CC(=O)N(c2ccccc2)C1 (centres undefined)
T/C (dose: 87.5 mg/kg/injection, schedule: Q01DX009 (ip), vehicle: saline with Tween-80): 102 % of control
T/C (dose: 175.0 mg/kg/injection, schedule: Q01DX009 (ip), vehicle: saline with Tween-80): 111 % of control
T/C (dose: 350.0 mg/kg/injection, schedule: Q01DX009 (ip), vehicle: saline with Tween-80): 100 % of control

CC(=O)OC1C(=O)C(O)C(C)OC1O[C@@H]1C[C@@]2(C)[C@@H]3CC=C4[C@@H](C[C@H](O)C(=O)C4(C)C)[C@]3(C)C(=O)C[C@]2(C)[C@H]1[C@@](C)(O)C(=O)/C=C/C(C)(C)O (some centres undefined)
T/C (dose: 0.13 mg/kg/injection, schedule: Q01DX009 (ip), vehicle: Klucel (hydroxypropylcellulose) (HPC)): 104 % of control
T/C (dose: 0.16 mg/kg/injection, schedule: Q01DX010 (ip), vehicle: saline): 107 % of control and 110 % of control
T/C (dose: 0.25 mg/kg/injection, schedule: Q01DX009 (ip), vehicle: Klucel (hydroxypropylcellulose) (HPC)): 109 % of control
T/C (dose: 0.25 mg/kg/injection, schedule: Q01DX010 (ip), vehicle: carboxymethylcellulose (CMC)): 90 % of control
T/C (dose: 0.33 mg/kg/injection, schedule: Q01DX010 (ip), vehicle: saline): 109 % of control and 110 % of control
T/C (dose: 0.5 mg/kg/injection, schedule: Q01DX009 (ip), vehicle: Klucel (hydroxypropylcellulose) (HPC)): 118 % of control
T/C (dose: 0.5 mg/kg/injection, schedule: Q01DX010 (ip), vehicle: carboxymethylcellulose (CMC)): 87 % of control and 90 % of control
T/C (dose: 0.67 mg/kg/injection, schedule: Q01DX010 (ip), vehicle: saline): 108 % of control and 110 % of control
T/C (dose: 1.0 mg/kg/injection, schedule: Q01DX009 (ip), vehicle: Klucel (hydroxypropylcellulose) (HPC)): 113 % of control
T/C (dose: 1.25 mg/kg/injection, schedule: Q01DX010 (ip), vehicle: saline): 109 % of control and 110 % of control
T/C (dose: 1.4 mg/kg/injection, schedule: Q01DX009 (ip), vehicle: saline): 150 % of control
T/C (dose: 2.0 mg/kg/injection, schedule: Q01DX009 (ip), vehicle: Klucel (hydroxypropylcellulose) (HPC)): 90 % of control
T/C (dose: 2.5 mg/kg/injection, schedule: Q01DX010 (ip), vehicle: saline): 110 % of control and 111 % of control
T/C (dose: 2.6 mg/kg/injection, schedule: Q01DX009 (ip), vehicle: saline): 120 % of control
